Experimental data published in patent US7312237B2, “Combination of epothilone analogs and chemotherapeutic agents for the treatment of prolilferative diseases” (Bristol-Myers Squibb Co., priority 2001, dated 2007).
Where “and” joins values, the source holds several entries; their conditions need not be identical. Equal entries are not always repeated. Entries after “also recorded” stand apart in the source; their conditions may differ.

Columns and labels:
HCT116/VM46 = test: In vitro cytotoxicity (MTS assay), HCT116/VM46; format: cell-based, human
MIP = test: In vitro cytotoxicity (MTS assay), MIP; format: cell-based; conditions: 72 h
Description: (§1) The in vitro cytotoxicity was assessed in tumor cells by a tetrazolium-based colorimetric assay which takes advantage of the metabolic conversion of MTS (3-(4,5-dimethylthiazol-2-yl)-5-(3-carboxymethoxyphenyl)-2-(4-sulphenyl)-2H-tetrazolium, inner salt) to a reduced form that absorbs light at 492 nm. Cells were seeded 24 hr prior to drug addition. Following a 72 hour incubation at 37° C. with serially diluted compound, MTS, in combination with the electron coupling agent phenazine methosulfate, was added to the cells. The incubation was continued for 3 hours, then the absorbancy of the medium at 492 nm was measured with a spectrophotometer to obtain the number of surviving cells relative to control populations. The results are expressed as median cytotoxic concentrations (IC50 values).

[1] = system: normal mouse lung fibroblast cell line MLF; test: In vitro cytotoxicity (MTS assay), MLF; format: cell-based
Description: as §1

[2] = system: panel of tumor cell lines; test: Oncology Diverse Cell Assay, panel of 21 cell lines; format: cell-based; conditions: 18 of the 21 cell lines tested
Description: Bar graphs, on the right, depict the IC50 values of the cell lines listed on the left hand column (top to bottom).
as §1

[3] = system: tubulin isolated from calf brain; test: Tubulin polymerization assay; format: biochemical
[4] = system: Pat-7 human ovarian carcinoma; test: In vivo antitumor testing, Pat-7 in nude mice
Description: (§2) All tumor implants for efficacy testing were subcutaneous (sc).
(§3) The MTD was frequently equivalent to OD. When death occurs, the day of death was recorded.
(§4) And, Log cell kill=T−C÷(3.32×TVDT)
This tumor model was established from a tumor biopsy of an ovarian cancer patient (Pat-7), who was initially responsive to TAXOL® treatment but ultimately developed resistance to it following nine courses of monotherapy with TAXOL®. Prior to treatment with TAXOL®, Pat-7 also received numerous other chemotherapeutic agents including carboplatin, cytoxan, VP-16, ifosfamide and altretamine. Tumor biopsy was taken following development of TAXOL® resistance.

[5] = In vivo antitumor testing, Pat-7 in nude rats; conditions: nude, rat, in vivo, iv; read-out: OD (optimal dose or MTD)
Description: as §3, §4

[6] = system: Pat-7 human ovarian carcinoma; test: In vivo antitumor testing, Pat-7 in nude rats; conditions: Expt. 15, nude rats, IV q8dx2, OD 3 mg/kg
Description: as §3, §4

[7] = system: A2780Tax human ovarian carcinoma; conditions: Expt. 12, IV q2dx5, OD 6.3 mg/kg
From the text: (§5) The following human tumors were used: A2780 ovarian, A2780Tax ovarian (established from cells obtained from Dr. Antonio Fojo, Medicine Branch, NCI, Bethesda, Md.), HCT116/VM46 colon, Pat-7 ovarian (established from a tumor biopsy provided by Dr. Thomas Hamilton, Fox Chase Cancer Center, Philadelphia, Pa.) from a patient who had developed resistance to TAXOL®). The murine fibrosarcoma M5076 was also employed.
The following tumors were passaged in the indicated host strain of mouse: murine M5076 fibrosarcoma (M5076) in C57Bl/6 mice; human A2780 and Pat-7 ovarian carcinomas, HCT116, HCT116/VM46 and LS174T colon carcinoma, Pat-21 breast carcinoma in nude mice. Tumor passage occurred biweekly for murine tumors and approximately every two to eight weeks for the various human tumor lines. With regard to efficacy testing, M5076 tumors were implanted in (C57Bl/6×DBA/2)F1 hybrid mice, and human tumors were implanted in nude mice. All tumor implants for efficacy testing were subcutaneous (sc). […]
Antitumor activity was evaluated at the maximum tolerated dose (MTD) which is defined as the dose level immediately […] which excessive toxicity (i.e. more than one death) occurred. […] When death occurs, the day of death was recorded. […]
To estimate tumor cell kill, the tumor volume doubling time was first calculated with the formula: […]

[8] = system: HCT116/VM46 human colon carcinoma; test: in vivo
From the text: as §5
The following tumors were passaged in the indicated host strain of mouse: murine M5076 fibrosarcoma (M5076) in C57Bl/6 mice; human A2780 and Pat-7 ovarian carcinomas, HCT116, HCT116/VM46 and LS174T colon carcinoma, Pat-21 breast carcinoma in nude mice. Tumor passage occurred biweekly for murine tumors and approximately every two to eight weeks for the various human tumor lines. With regard to efficacy testing, M5076 tumors were implanted in (C57Bl/6×DBA/2)F1 hybrid mice, and human tumors were implanted in nude mice. All tumor implants for efficacy testing were subcutaneous (sc).
The required number of animals needed to detect a meaningful response were pooled at the start of the experiment and each was given a subcutaneous implant of a tumor fragment (·50 mg) with a 13-gauge trocar. For treatment of early-stage tumors, the animals were again pooled before distribution to the various treatment and control groups. For treatment of animals with advanced-stage disease, tumors were allowed to grow to the predetermined size window (tumors outside the range were excluded) and animals were evenly distributed to various treatment and control groups. Treatment of each animal was based on individual body weight. Treated animals were checked daily for treatment related toxicity/mortality. Each group of animals was weighed before the initiation of treatment (Wt1) and then again following the last treatment dose (Wt2). The difference in body weight (Wt2−Wt1) provides a measure of treatment-related toxicity.
Tumor weights (mg) were estimated from the formula: Tumor weight=(length×width^2)÷2
Antitumor activity was evaluated at the maximum tolerated dose (MTD) which is defined as the dose level immediately […] which excessive toxicity (i.e. more than one death) occurred. […] When death occurs, the day of death was recorded.
Tumor response end-point was expressed in terms of tumor growth delay (T-C value), defined as the difference in time (days) required for the treated tumors (T) to reach a predetermined target size compared to those of the control group (C).
To estimate tumor cell kill, the tumor volume doubling time was first calculated with the formula:
TVDT=Median time (days) for control tumors to reach target size−Median time (days) for control tumors to reach half the target size
HCT116/VM46 is an MDR-resistant colon carcinoma developed from the sensitive HCT116 parent line.

[9] = system: A2780 human ovarian carcinoma; test: In vivo antitumor testing, A2780 in nude rats
Description: as §3, §4
A2780 grown in nude rats was also utilized.

[10] = In vivo antitumor testing, HCT116 xenograft; set-up: species or system nude mice; conditions: nude, mouse, in vivo, read-out: OD (optimal dose or MTD)
Description: as §2, §3, §4

[11] = system: HCT116 human colon carcinoma; test: In vivo antitumor testing, HCT116 xenograft; set-up: species or system nude mice
Description: as §2, §3, §4

[12] = Expt. 52, IV q2dx5, OD 6.3 mg/kg
[13] = Expt. 52, IV q4dx3, OD 10 mg/kg
[14] = Expt. 52, IV q8dx2, OD 24 mg/kg
[15] = Expt. 52, PO q2dx5, OD 90 mg/kg

In the case of `C/C(=C\c1csc(C)n1)[C@@H]1C[C@@H]2O[C@]2(C)CCC[C@H](C)[C@H](O)[C@@H](C)C(=O)C(C)(C)[C@@H](O)CC(=O)N1` (relative stereo) [Compound 1, [1S-[1R*,3R*(E),7R*,10S*,11R*,12R*,16S*]]-7,11-dihydroxy-8,8,10,12,16-pentamethyl-3-[1-methyl-2-(2-methyl-4-thiazolyl)ethenyl]-4-aza-17-oxabicyclo[14.1.0] heptadecane-5,9-dione], the IC50 (HCT116/VM46; Homo sapiens, HCT-116/VM46, HCT116/VM46 (MDR), 72 hour incubation) is reported as 24.5 nM, the “resistance ratio (R/S)” value (HCT116/VM46; IC50 HCT116/VM46 versus sensitive HCT116) is reported as 9.4 and the IC50 (MIP) is reported as 24.8 nM. For the same compound, the IC50 [1] was 34.5 nM, the IC50 [2] was 1.4 to 6 nM and the “Ratio of Polymerization Potency of Analog/Paclitaxel” value [3] was 0.4. The “OD (optimal dose or maximum tolerated dose, MTD)” value ([4]; Compound 1 IV, q2dx5) was 6.3 mg/kg, the “OD (optimal dose or MTD)” value ([4]; Compound 1 PO, q2dx5) was 80 mg/kg and the “LCK (gross log cell kill)” value ([4]; Expt. 8, IV q2dx5, OD 6.3 mg/kg) was 4.5. For the same compound, the “LCK (gross log cell kill)” value ([4]; Expt. 8, PO q2dx5, OD 60 mg/kg) was 3.1, the “LCK (gross log cell kill)” value ([4]; Expt. 9, PO q2dx5, OD 80 mg/kg) was 2.5 and the “LCK (gross log cell kill)” value ([4]; Expt. 12, IV q2dx5, OD 6.3 mg/kg) was 2.1. The “LCK (gross log cell kill)” value ([4]; Expt. 12, IV q4dx3, OD 15 mg/kg) was 1.7, the “LCK (gross log cell kill)” value ([4]; Expt. R403, IV q2dx5, OD 4.8 mg/kg) was 2.1 and the MTD [5] was 3 mg/kg. For the same compound, the “LCK (gross log cell kill)” value [6] was greater than 5, the cures/total [6] was 4 of 6 and (4/6) and the “LCK (gross log cell kill)” value [7] was 2.5. For the same compound, the “OD (optimal dose or MTD)” value ([8]; Compound 1 IV, q2dx5) was 6.3 mg/kg, the “OD (optimal dose or MTD; maximum tolerated regimen)” value ([8]; Compound 1 IV, q4dx3) was 16 mg/kg and the “LCK (gross log cell kill)” value ([8]; Expt. 32, IV q2dx5, OD 4.8 mg/kg) was 3.1. The “LCK (gross log cell kill)” value ([8]; Expt. 33, IV q2dx5, OD 4.8 mg/kg) was 1.3, the “LCK (gross log cell kill)” value ([8]; Expt. 35, IV q2dx5, OD 6.3 mg/kg) was 1.8 and the “LCK (gross log cell kill)” value ([8]; Expt. 35, IV q4dx3, OD 16 mg/kg) was 2.0. For the same compound, the “LCK of tumor response” value ([8]; FIG. 7, Compound 1 alone, 15 mg/kg iv, q4dx3) was 1.6 LCK, the tumor cure ([8]; FIG. 7, single agent treatment at maximum tolerated regimen) was “did not induce tumor cure” and the MTD ([9]; Compound 1, every 2 days x5, nude rats) was 1.2 mg/kg/inj. The LCK ([9]; nude rats, every 2 days x5, MTD 1.2 mg/kg/inj) was 0.3, the MTD ([10]; iv, Compound 1 IV, q2dx5) was 6.3 mg/kg and the MTD ([10]; iv, Compound 1 IV, q4dx3) was 10 mg/kg. The MTD ([10]; iv, Compound 1 IV, q8dx2) was 24 mg/kg, the MTD ([10]; po, Compound 1 PO, q2dx5) was 90 mg/kg and the “LCK (gross log cell kill)” value [11, 12] was greater than 6.3. The cures/total [11, 12] was 4 of 8 and 4/8, the “LCK (gross log cell kill)” value [11, 13] was greater than 6.3 and the cures/total [11, 13] was 5 of 8 and 5/8. For the same compound, the “LCK (gross log cell kill)” value [11, 14] was greater than 6.3, the cures/total [11, 14] was 8 of 8 and 8/8 and the “LCK (gross log cell kill)” value [11, 15] was greater than 6.3. For the same compound, the cures/total [11, 15] was “seven of eight; also recorded: (7/8)”.
